The target of assay [1] is T1, Neuronal acetylcholine receptor; alpha4/beta2 (Rattus norvegicus) (UniProt P09483+P12390). The experiment in a line: Displacement of [3H]epibatidine from alpha4beta2 nicotinic acetylcholine receptor in rat cerebral cortical membrane up to 100 uM. It is filed as cell membranes. For orientation: In a radioligand displacement assay an active substance lowers the binding of a labelled ligand.

Assay [2] concerns the target T2, Neuronal acetylcholine receptor; alpha3/beta4 (Rattus norvegicus) (UniProt P04757+P12392). In words: Inhibition of rat alpha3beta4 nicotinic acetylcholine receptor activation expressed in HEK293 cells assessed as intracellular calcium level up to 100 uM by fluorescence assay. The format is cell-based. (In general: Calcium assays in cells follow changes in intracellular calcium, usually with a dye or a luminescent sensor.)

Assay [3] concerns the target T1, Neuronal acetylcholine receptor; alpha4/beta2 (Rattus norvegicus). In words: Displacement of [3H]epibatidine from alpha4beta2 nicotinic acetylcholine receptor in rat cerebral cortical membrane at 100 uM. It is filed as cell membranes.
For assay [4], the target named is T2, Neuronal acetylcholine receptor; alpha3/beta4 (Rattus norvegicus). In words: Inhibition of rat alpha3beta4 nicotinic acetylcholine receptor activation expressed in HEK293 cells assessed as intracellular calcium level at 500 uM by fluorescence assay. The format is cell-based.

The source of these data is ChEMBL document CHEMBL1151978, “Epiquinamide: a poison that wasn't from a frog that was” (J Nat Prod, 2009).

Calls of active or inactive are those of the source. The calls are words filed in the database; no cut-off is given here.

Take `O=C(O)[C@@H]1CCCN2CCCC[C@H]12`: the result in assay [1] and in assay [2] was inactive.

Regarding `O=[N+]([O-])[C@H]1CCCN2CCCC[C@H]12`, the result in assay [3] and in assay [4] was inactive.
